In patent US10238661B2, “Fused, spirocyclic heteroaromatic compounds for the treatment of bacterial infections” (priority 2014, dated 2019):
In brackets after ≈: the same amount, converted by molar mass. Several values for one entry are separate records, joined by “and”; a condition that tells them apart may be missing. Equal entries are not always repeated. Where two headings read alike, the source gives them in different places.

Key:
Ureaplasma species [1] = details: Ureaplasma urealyticum ATCC 33175; CLSI M43-A acceptable QC range; cited from earlier work
Francisella tularensis = experiment: microbe, parasite or virus in culture; type: cell-based
Bacillus anthracis = experiment: microbe, parasite or virus in culture; type: cell-based
Mycoplasma pneumoniae = experiment: Broth microdilution MIC assay (CLSI M43-A), M. pneumoniae; type: cell-based; details: for MIC50 / MIC90 / MIC Range: M. pneumoniae isolates, n = 12
Ureaplasma species [2] = experiment: microbe, parasite or virus in culture; type: cell-based, Ureaplasma urealyticum, Ureaplasma parvum; details: for MIC50 / MIC90 / MIC: Ureaplasma; for MIC: ATCC33175
Mycoplasma genitalium = experiment: microbe, parasite or virus in culture; type: cell-based; details: for MIC: Mycoplasmoides genitalium
Mycoplasma hominis = experiment: microbe, parasite or virus in culture; type: cell-based; details: for MIC50 / MIC90: Metamycoplasma hominis
Brucella suis = experiment: microbe, parasite or virus in culture; type: cell-based
Yersinia pestis = experiment: microbe, parasite or virus in culture; type: cell-based; details: Yersinia pestis
Brucella abortus = experiment: microbe, parasite or virus in culture; type: cell-based
Burkholderia mallei = experiment: microbe, parasite or virus in culture; type: cell-based
[3] = M. pneumoniae M-129 QC Strain ATCC 29342-B7, read-out: MIC
[4] = M. pneumoniae isolate 51494, read-out: MIC
[5] = M. pneumoniae isolate 53706, read-out: MIC
[6] = M. pneumoniae isolate 53938, read-out: MIC
[7] = M. pneumoniae isolate 54484, macrolide-resistant, read-out: MIC
[8] = M. pneumoniae isolate 54506, macrolide-resistant, read-out: MIC
[9] = M. pneumoniae isolate 55246, read-out: MIC
[10] = M. pneumoniae isolate 55612, read-out: MIC
[11] = M. pneumoniae isolate 57807, read-out: MIC
[12] = M. pneumoniae isolate 58188, read-out: MIC
[13] = M. pneumoniae isolate 58772, read-out: MIC
[14] = M. pneumoniae isolate 59597, read-out: MIC
[15] = M. pneumoniae isolate 59598, read-out: MIC

Row | SMILES | MIC Limits for Quality Control Strain (Ureaplasma species [1]) [µg/mL] | MIC (Francisella tularensis; Francisella tularensis) [µg/mL] | MIC (Bacillus anthracis; Bacillus anthracis) [µg/mL] | MIC (Mycoplasma pneumoniae; [3]) [µg/mL] | MIC (Mycoplasma pneumoniae; [4]) [µg/mL] | MIC (Mycoplasma pneumoniae; [5]) [µg/mL] | MIC (Mycoplasma pneumoniae; [6]) [µg/mL] | MIC (Mycoplasma pneumoniae; [7]) [µg/mL] | MIC (Mycoplasma pneumoniae; [8]) [µg/mL] | MIC (Mycoplasma pneumoniae; [9]) [µg/mL] | MIC (Mycoplasma pneumoniae; [10]) [µg/mL] | MIC (Mycoplasma pneumoniae; [11]) [µg/mL] | MIC (Mycoplasma pneumoniae; [12]) [µg/mL] | MIC (Mycoplasma pneumoniae; [13]) [µg/mL] | MIC (Mycoplasma pneumoniae; [14]) [µg/mL] | MIC (Mycoplasma pneumoniae; [15]) [µg/mL] | MIC50 (Mycoplasma pneumoniae) [µg/mL] | MIC90 (Mycoplasma pneumoniae) [µg/mL] | MIC Range (Mycoplasma pneumoniae) | MIC Range (Ureaplasma species [2]) [µg/mL] | further results
1 | CC[C@H]1OC(=O)[C@H](C)C(=O)[C@H](C)[C@@H](O[C@@H]2O[C@H](C)C[C@H](N(C)C)[C@H]2O)[C@](C)(OC)C[C@@H](C)C(=O)[C@H](C)[C@H]2N(CCCCn3cnc(-c4cccnc4)c3)C(=O)O[C@]12C [Telithromycin] | 0.125 to 1 |  |  |  |  |  |  |  |  |  |  |  |  |  |  |  |  |  |  |  | 
2 | O=C(N[C@H](CO)[C@H](O)c1ccc([N+](=O)[O-])cc1)C(Cl)Cl [Chloramphenicol] |  | 2 (≈ 6.19 µM) | 8 (≈ 24.8 µM) |  |  |  |  |  |  |  |  |  |  |  |  |  |  |  |  |  | MIC (Francisella tularensis): 1 µg/mL (≈ 3.09 µM); MIC (Bacillus anthracis): 4 µg/mL (≈ 12.4 µM)
3 | CC[C@H]1OC(=O)[C@H](C)[C@@H](O[C@H]2C[C@@](C)(OC)[C@@H](O)[C@H](C)O2)[C@H](C)[C@@H](O[C@@H]2O[C@H](C)C[C@H](N(C)C)[C@H]2O)[C@](C)(O)C[C@@H](C)CN(C)[C@H](C)[C@@H](O)[C@]1(C)O [Azithromycin] | 0.5 to 8 |  |  | < 0.001 | < 0.001 | < 0.001 | < 0.001 | 32 (≈ 42.7 µM) | 16 (≈ 21.4 µM) | < 0.001 | < 0.001 | < 0.001 | < 0.001 | < 0.001 | < 0.001 | < 0.001 | < 0.001 | 16 (≈ 21.4 µM) | <0.001-32 ^ μg/mL | 1 to 32 | MIC (Mycoplasma pneumoniae; most M. pneumoniae isolates, read-out: MICs of most isolates): < 0.001 µg/mL; MICs of two macrolide-resistant strains (Mycoplasma pneumoniae; two M. pneumoniae strains with mutations in 23S ribosomal RNA): 32 µg/mL; MIC (Mycoplasma pneumoniae; two M. pneumoniae strains with mutations in 23S ribosomal RNA, read-out: MICs of two macrolide-resistant strains): 16 µg/mL (≈ 21.4 µM); MIC50 (Ureaplasma species [2]): 2 µg/mL (≈ 2.67 µM); MIC90 (Ureaplasma species [2]): 4 µg/mL (≈ 5.34 µM); MIC (Ureaplasma species [2]): 2 µg/mL (≈ 2.67 µM); MIC Range (Mycoplasma genitalium): <0.001 µg/mL; MIC (Mycoplasma genitalium): < 0.001 µg/mL; MIC (Mycoplasma genitalium; ATCC33530): < 0.001 µg/mL; MIC (Mycoplasma genitalium; ATCC49895): < 0.001 µg/mL; MIC (Mycoplasma genitalium; ATCC49899): < 0.001 µg/mL; MIC Range (Mycoplasma hominis): 1 to 8 µg/mL; MIC50 (Mycoplasma hominis): 4 µg/mL (≈ 5.34 µM); MIC90 (Mycoplasma hominis): 4 µg/mL (≈ 5.34 µM)
4 | C[C@H]1COc2c(N3CCN(C)CC3)c(F)cc3c(=O)c(C(=O)O)cn1c23 [Levofloxacin] |  | ≤ 0.125 | ≤ 0.25 | 1 (≈ 2.77 µM) | 1 (≈ 2.77 µM) | 0.5 (≈ 1.38 µM) | 1 (≈ 2.77 µM) | 0.5 (≈ 1.38 µM) | 0.5 (≈ 1.38 µM) | 1 (≈ 2.77 µM) | 0.5 (≈ 1.38 µM) | 0.5 (≈ 1.38 µM) | 0.5 (≈ 1.38 µM) | 1 (≈ 2.77 µM) | 0.5 (≈ 1.38 µM) | 1 (≈ 2.77 µM) | 0.5 (≈ 1.38 µM) | 1 (≈ 2.77 µM) | 0.5 to 1 µg/mL | 0.25 to 32 | MIC (Brucella suis): 0.25 µg/mL (≈ 0.692 µM); MIC (Brucella suis; Brucella suis): 0.5 µg/mL (≈ 1.38 µM); MIC (Yersinia pestis): ≤ 0.25 µg/mL; MIC (Brucella abortus): 0.25 µg/mL (≈ 0.692 µM); MIC (Brucella abortus; Brucella abortus): 0.5 µg/mL (≈ 1.38 µM); MIC50 (Ureaplasma species [2]): 1 µg/mL (≈ 2.77 µM); MIC90 (Ureaplasma species [2]): 8 µg/mL (≈ 22.1 µM); MIC (Ureaplasma species [2]): 1 µg/mL (≈ 2.77 µM); MIC Range (Mycoplasma genitalium): 0.5 to 2 µg/mL; MIC (Mycoplasma genitalium): 0.5 µg/mL (≈ 1.38 µM); MIC (Mycoplasma genitalium; ATCC33530): 2 µg/mL (≈ 5.53 µM); MIC (Mycoplasma genitalium; ATCC49895): 2 µg/mL (≈ 5.53 µM); MIC (Mycoplasma genitalium; ATCC49899): 2 µg/mL (≈ 5.53 µM); MIC Range (Mycoplasma hominis): 0.063 to 0.25 µg/mL; MIC50 (Mycoplasma hominis): 0.125 µg/mL (≈ 0.346 µM); MIC90 (Mycoplasma hominis): 0.25 µg/mL (≈ 0.692 µM); MIC (Burkholderia mallei): 0.5 µg/mL and 0.25 µg/mL
